The record followed here is ChEMBL document CHEMBL1148364, “Structure-based design, synthesis, and structure-activity relationship studies of novel non-nucleoside adenosine deaminase inhibitors” (J Med Chem, 2004).

Each structure is given as a SMILES string.

System in one data set: not listed separately
Nature of the data set: AUC 0-8 hr value in rats at 10 mg/kg. In kind it is ADME, organism-based. On the set-up: time < 8 hr, dose 10 mg/kg. Particulars: rat, plasma.
Turning to `Cn1cc(CC[C@H](CO)n2cnc(C(N)=O)c2)c2cc(OCCCc3ccc(Cl)cc3)ccc21`, the AUC(0-t) at 8 h came to 260 ng·h/mL.

A further data set deals with T1, Adenosine deaminase (Homo sapiens, UniProt P00813).
T1 sequence (P00813 whole entry): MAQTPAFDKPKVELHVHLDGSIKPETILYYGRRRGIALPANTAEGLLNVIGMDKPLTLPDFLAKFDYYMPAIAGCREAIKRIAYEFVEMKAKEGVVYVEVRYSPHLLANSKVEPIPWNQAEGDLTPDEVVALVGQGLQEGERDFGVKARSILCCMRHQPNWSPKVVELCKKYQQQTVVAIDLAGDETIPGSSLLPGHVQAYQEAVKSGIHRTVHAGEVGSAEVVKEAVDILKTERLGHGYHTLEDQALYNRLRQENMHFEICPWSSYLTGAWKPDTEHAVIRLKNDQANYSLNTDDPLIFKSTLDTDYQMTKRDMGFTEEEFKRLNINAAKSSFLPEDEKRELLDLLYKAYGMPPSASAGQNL
Conditions: not given
The compound `Cc1ccc(CCC(=O)Nc2ccc3ccn(CC[C@H](CO)n4cnc(C(N)=O)c4)c3c2)cc1` had a Ki of 38 nM.
The compound `CC(=O)Nc1ccc2ccn(CC[C@H](CO)n3cnc(C(N)=O)c3)c2c1` displayed an inhibition constant Ki of 1300 nM.
`NC(=O)c1cn([C@@H](CO)CCn2ccc3ccc(OCCCCc4ccccc4)cc32)cn1` showed a Ki of 12 nM.
In turn, `Cc1ccc(CCCC(=O)Nc2ccc3ccn(CC[C@H](CO)n4cnc(C(N)=O)c4)c3c2)cc1` registered a Ki of 34 nM.
On the same count and under the same terms, under `CCCCCCOc1ccc2c(c1)c(CC[C@H](CO)n1cnc(C(N)=O)c1)cn2C` stands 13 nM.
On the same count and under the same terms, under `COc1ccc(CCC(=O)Nc2ccc3ccn(CC[C@H](CO)n4cnc(C(N)=O)c4)c3c2)cc1` stands 57 nM; under `CCCCOc1ccc2ccn(CC[C@H](CO)n3cnc(C(N)=O)c3)c2c1`, 240 nM; under `NC(=O)c1cn([C@@H](CO)CCn2ccc3ccc(OCCCc4ccccc4)cc32)cn1`, 17 nM.
Same read-out and setting: under `CCCCCCOc1ccc2c(ccn2CC[C@H](CO)n2cnc(C(N)=O)c2)c1` stands 6200 nM.
`CCCCCCOc1ccc2ccn(CC[C@H](CO)n3cnc(C(N)=O)c3)c2c1` came in with an inhibition constant (Ki) of 55 nM.
Consider `CCCCCC(=O)Nc1ccc2ccn(CC[C@H](CO)n3cnc(C(N)=O)c3)c2c1`, for which the inhibitory constant (Ki) worked out at 24 nM.
The same measure, in the same setting: under `NC(=O)c1cn([C@@H](CO)CCn2ccc3ccc(NC(=O)CCc4cccnc4)cc32)cn1` stands 17 nM; under `Cn1cc(CC[C@H](CO)n2cnc(C(N)=O)c2)c2cc(OCCCc3ccc(Cl)cc3)ccc21`, 4.9 nM.
Still for that read-out and setting: under `NC(=O)c1cn([C@@H](CO)CCn2ccc3ccc(OCCCc4ccc(Cl)cc4)cc32)cn1` stands 13 nM; under `NC(=O)c1cn([C@@H](CO)CCn2ccc3ccc(NC(=O)CCCCCc4ccccc4)cc32)cn1`, 91 nM.
In turn, `NC(=O)c1cn([C@@H](CO)CCn2ccc3cc(OCCCc4ccccc4)ccc32)cn1` registered a Ki of 1900 nM.

System in the next data set: not listed separately
Nature of the data set: Cmax value in rats at 10 mg/kg. Format: ADME, organism-based. The arrangement: dose 10 mg/kg. Particulars: rat, in vivo.
As to `Cn1cc(CC[C@H](CO)n2cnc(C(N)=O)c2)c2cc(OCCCc3ccc(Cl)cc3)ccc21`, the Cmax was determined as 210 ng/mL.

System in a further data set: not listed separately
The data set can be described thus: Oral bioavailability in rats at 10 mg/kg. Particulars: rat, in vivo. In kind it is ADME, organism-based.
Regarding `Cn1cc(CC[C@H](CO)n2cnc(C(N)=O)c2)c2cc(OCCCc3ccc(Cl)cc3)ccc21`, the bioavailability stood at 10%.
